Holding throughout (format): in vivo
In test [1] the test system is Mycosphaerella graminicola=Septoria tritici. Briefly: Fungicidal test for SEPTTR, speckled leaf blotch of wheat, one day protectant. The settings on record: 24 h, wheat plants (variety Monon), sprayed one day before inoculation. As to the method: The compounds identified in Table 4 were prepared using the procedures illustrated in the previous examples and these compounds were tested against wheat glume blotch and wheat leaf blotch using the protocols described herein. Fungicidal Test for […] Speckled Leaf Blotch of Wheat (Mycosphaerella graminicola=Septoria tritici; Bayer code […]): Wheat plants (variety Monon) were grown from seed in a greenhouse in 50% pasteurized soil/50% soil-less mix until the first true leaf was fully expanded, with 3-8 seedlings per pot. These plants were sprayed until wet with the formulated test compound at a rate of 25 ppm. On the following day, the leaves were inoculated with an aqueous spore suspension of Septoria tritici and the plants were kept in high humidity (one day in a dark dew chamber followed by four to seven days in a lighted dew chamber) to permit spores to germinate and infect the leaf The plants were then transferred to a greenhouse until disease developed on untreated control plants.

Test [2] relates to beet armyworm (Spodoptera exigua) larvae. Kind of test: Beet armyworm mortality on artificial diet (LAPHEG). To be noted: 168 h, 4000 μg/ml, with piperonyl butoxide (approx. 1:4), mortality seven days after treatment, read-out: LAPHEG: % mortality against beet armyworm on artificial diet. As to the method: (§1) The compounds identified in TABLE 2 were prepared using the procedures illustrated in the previous examples and these compounds were tested against beet armyworm, mosquito, fruit fly, and cotton aphid using protocols described after.
(§2) Compounds were evaluated on mosquito (Aedes aegypti) larvae, beet armyworm (Spodoptera exigua) larvae, fruit fly (Drosophila melanogaster) adults and cotton aphid (Aphis gossypi). Newly hatched mosquito larvae (about 50 larvae/well) in 96-well microtiter plates in 230 ul of water containing powdered liver/yeast extract (1 gr/100 ml) were treated with 20 ppm solution of the test compound. Following treatment the plates were covered with a lid and mortality was determined three days after treatment. Beet armyworm eggs (about 5 per well) were placed on artificial diet (in a 96-well microtiter plate) treated with a 4000 ppm solution of a test compound in combination with piperonyl butoxide (in approximate ratio of 1:4). After infestation, the plates were covered with a lid and mortality was determined seven days following treatment. Five-day old fruit fly adults (about 5/well) were placed in deep-well microtiter plates containing 250 ul/well of a 2% agar-10% sucrose mixture that had been treated with a 4000 ppm solution of a test compound. Following infestation, the plates were covered with a lid and mortality was determined three days after treatment. Treatments for the mosquito and armyworm were replicated six times each, that of the fruit fly three times each.

Test [3] deals with mosquito (Aedes aegypti) larvae. Briefly: Mosquito larvae mortality (AEDSAE). The settings on record: 72 h, 20 μg/ml, mortality three days after treatment, read-out: AEDSAE: % mortality against mosquito larvae. As to the method: as §1, §2
Test [4] concerns cotton aphid (Aphis gossypi). Kind of test: Cotton aphid foliar spray test on squash (CA 200). The settings on record: 72 h, squash cotyledons, 3 days, Corrected % Control (Abbott), read-out: CA 200: % control against cotton aphid in foliar spray tests. How it is done:
The compounds identified in TABLE 2 were prepared using the procedures illustrated in the previous examples and these compounds were tested against beet armyworm, mosquito, fruit fly, and cotton aphid using protocols described after. […]
Squash with fully expanded cotyledon leaves were trimmed to one cotyledon per plant and infested with cotton aphid (wingless adult and nymph) 1 day prior to chemical application.
Each plant is examined before chemical application to ensure proper infestation (ca. 30-70 aphids per plant). Compounds (3 mg) were dissolved in 3 mL of acetone:methanol (50:50) solvent, forming stock solutions of 1000 ppm. The stock solutions were then diluted with 0.025% Tween 20 (in H2O) to make […]. A hand-held Devilbiss sprayer was used to apply the spray solutions until runoff to both sides of the squash cotyledon leaves. Four plants (4 replications) were used for each concentration of each compound. Reference plants (solvent check) were sprayed with 0.025% Tween 20 only. Treated plants were held in a holding room for 3 days at approximately 23° C. and 40% RH before the number of live aphids on each plant was recorded. Insecticidal activity was measured by Corrected % Control using Abbott's correction formula and presented in TABLE 2: Corrected % Control=100*(X−Y)/X • where X=No. of live aphids on solvent check plants • Y=No. of live aphids on treated plants

Test [5] concerns Leptosphaeria nodorum=Stagnospora nodorum. Kind of test: Fungicidal test for LEPTNO, glume blotch of wheat, one day protectant. To be noted: 24 h, wheat plants (variety Yuma), sprayed one day before inoculation. How it is done: The compounds identified in Table 4 were prepared using the procedures illustrated in the previous examples and these compounds were tested against wheat glume blotch and wheat leaf blotch using the protocols described herein. Fungicidal Test for […] Each pot contained 3-20 seedlings. These plants were sprayed until wet with the formulated test compound at a rate of 25 ppm. On the following day, the leaves were inoculated with an aqueous spore suspension of Leptosphaeria nodorum and the plants were kept in high humidity (one day in a dark dew chamber followed by four to seven days in a lighted dew chamber) to permit spores to germinate and infect the leaf. The plants were then transferred to a greenhouse until disease developed on untreated control plants.

For test [6], the system named is fruit fly (Drosophila melanogaster) adults. Kind of test: Adult fruit fly mortality on artificial diet (DROSME). The settings on record: 72 h, 4000 μg/ml, mortality three days after treatment, read-out: DROSME: % mortality against adult fruit fly on artificial diet. How it is done:
as §1, §2

Consider `FC(F)(F)c1ccccc1CCN1CCN(Cc2ccc3ccccc3c2)CC1` [Compound 80], for which the pest or weed control at 25 ppm in test [1] and in test [5] was 50 to 100% in each case. The mortality at 4000 µg/mL in test [2] was in the range of 26 to 49%; in test [6], 1 to 25%. Also, the mortality at 20 µg/mL in test [3] lay in the range of 1 to 25%. Moreover, the pest or weed control at 200 ppm in test [4] was 26 to 49%.
Take `FC(F)(F)c1ccccc1CCN1CCN(Cc2ccc(Cl)s2)CC1` [Compound 81]: the pest or weed control at 25 ppm in test [1] and in test [5] was 50 to 100% in each case. Besides, the mortality at 4000 µg/mL in test [2] and in test [6] was 1 to 25% throughout. In addition, in test [3], the mortality at 20 µg/mL lay in the range of 1 to 25%. Besides, the pest or weed control at 200 ppm in test [4] was in the range of 50 to 100%.
`FC(F)(F)c1ccccc1CCN1CCN(Cc2csc3ccc(Cl)cc23)CC1` [Compound 88]: the values for the pest or weed control at 25 ppm in test [1] and in test [5] were 50 to 100% and 1 to 25%, respectively. Further, the mortality at 4000 µg/mL in test [2] and in test [6] was 1 to 25% each time. For the same compound, the mortality at 20 µg/mL in test [3] lay within 1 to 25%. Besides, the pest or weed control at 200 ppm in test [4] fell in the range of 50 to 100%.
Turning to `c1ccc(OCCN2CCN(Cc3ccccc3-c3ccccc3)CC2)cc1` [Compound 92], the pest or weed control at 25 ppm fell in the range of 1 to 25% in test [1] and 50 to 100% in test [5]. The figures for the mortality at 4000 µg/mL in test [2] and in test [6] were 1 to 25% and 26 to 49%, respectively. Further, the mortality at 20 µg/mL in test [3] is 1 to 25%. For the same compound, the pest or weed control at 200 ppm in test [4] fell in the range of 1 to 25%.
Consider `c1ccc(CCN2CCN(Cc3ccccc3-c3ccccc3)CC2)cc1` [Compound 93], for which the pest or weed control at 25 ppm was in the range of 50 to 100% in test [1] and 1 to 25% in test [5]. The mortality at 4000 µg/mL in test [2] lay within 1 to 25%; in test [6], 26 to 49%. Besides, the mortality at 20 µg/mL in test [3] lay within 1 to 25%. Further, the pest or weed control at 200 ppm in test [4] lay in the range of 1 to 25%.
As for `CCOCCN1CCN(Cc2ccc(OCc3ccccc3)cc2)CC1` [Compound 109], the pest or weed control at 25 ppm was 50 to 100% in test [1] and 1 to 25% in test [5].
With `c1ccc(-c2ccccc2CN2CCN(CCc3ccccn3)CC2)cc1` [Compound 110], the figures for the pest or weed control at 25 ppm in test [1] and in test [5] were 50 to 100% and 1 to 25%, respectively.
Turning to `c1ccc(COc2ccc(CN3CCN(CCOc4ccccc4)CC3)cc2)cc1` [Compound 111], the pest or weed control at 25 ppm in test [1] and in test [5] was 50 to 100% each time.
As to `c1ccc(CCN2CCN(Cc3ccc(OCc4ccccc4)cc3)CC2)cc1` [Compound 112], the pest or weed control at 25 ppm in test [1] was 50 to 100%; in test [5], 1 to 25%.
As to `O=C(C1CC1)N1CCN(Cc2ccc(OCc3ccccc3)cc2)CC1` [Compound 114], the pest or weed control at 25 ppm in test [1] lay in the range of 50 to 100%; in test [5], 1 to 25%.
Turning to `c1ccc(CCCN2CCN(Cc3ccc4ccccc4c3)CC2)cc1` [Compound 118], the pest or weed control at 25 ppm in test [1] and in test [5] was 50 to 100% in each case.
`FC(F)(F)c1ccccc1CCN1CCN(Cc2cccc(-n3cccc3)c2)CC1` [Compound 119]: the pest or weed control at 25 ppm in test [1] is 26 to 49%; in test [5], 50 to 100%.
In the same order, the values of `CC(c1ccccc1)N1CCN(Cc2ccc3ccccc3c2)CC1` (stereo not drawn) [Compound 187] are 50 to 100% and 50 to 100%.
Take `CC(c1ccccc1)N1CCN(Cc2cccc(-n3cccc3)c2)CC1` (stereo not drawn) [Compound 234]: the pest or weed control at 25 ppm in test [1] lay in the range of 1 to 25%; in test [5], 50 to 100%.
For the compound `CC(c1ccccc1)N1CCN(Cc2csc3ccc(Cl)cc23)CC1` (stereo not drawn) [Compound 236], the pest or weed control at 25 ppm in test [1] was 1 to 25%; in test [5], 50 to 100%.
Consider `CC(CN1CCN(Cc2cc3c(cc2Cl)OCO3)CC1)c1ccccc1` (stereo not drawn) [Compound 333], for which the mortality at 4000 µg/mL in test [2] was 1 to 25%; in test [6] it was 50 to 100%. Also, the mortality at 20 µg/mL in test [3] is 1 to 25%. Further, the pest or weed control at 200 ppm in test [4] lay in the range of 50 to 100%.

The record behind these values is patent US8338430B2, “N-substituted piperazines” (Dow AgroSciences, LLC., priority 2005, dated 2012).
